Data reported in ChEMBL document CHEMBL3853304, “Synthesis and biological screening for cytotoxic activity of N-substituted indolines and morpholines” (Eur J Med Chem, 2016).
Calls of active or inactive are those of the source. The calls are words filed in the database; no cut-off is given here.

How the values were obtained:
[1] = (§1) Cytotoxicity against human U2OS cells assessed as cell death at 100 uM after 24 hrs by trypan blue exclusion assay; format: functional
[2] = (§2) Cytotoxicity against human U2OS cells assessed as reduction in cell viability after 24 hrs by trypan blue exclusion assay; format: functional, cell-based
U2OS [3] = test: as §2; format: functional, cell-based
U2OS [4] = test: Inhibition of cell migration in human U2OS cells at IC50 measured after 2 hrs by scratch migration assay; format: functional
U2OS [5] = test: Inhibition of cell migration in human U2OS cells at IC50 after 2 to 10 hrs by scratch migration assay; format: functional, cell-based
U2OS [6] = test: Inhibition of cell migration in human U2OS cells at IC50 measured after 10 hrs by scratch migration assay; format: functional
U2OS [7] = test: Inhibition of cell migration in human U2OS cells assessed as disturbed monolayer at IC50 measured after 10 hrs by light microscopic analysis; format: functional, cell-based
U2OS [8] = test: Induction of apoptosis in human U2OS cells assessed as apoptotic cells at IC50 after 24 hrs by propidium iodide based epifluorescence microscopic analysis (reference value: 2 %); format: functional
U2OS [9] = test: Inhibition of cell migration in human U2OS cells assessed as detached adherent cells at IC50 measured after 10 hrs by light microscopic analysis; format: functional, cell-based
U2OS [10] = test: Induction of apoptosis in human U2OS cells assessed as apoptotic cells at IC50 after 48 hrs by propidium iodide based epifluorescence microscopic analysis (reference value: 2 %); format: functional
U2OS [11] = test: Induction of apoptosis in human U2OS cells assessed as necrotic cells at IC50 after 24 hrs by propidium iodide based epifluorescence microscopic analysis (reference value: 3 %); format: functional
U2OS [12] = test: Induction of apoptosis in human U2OS cells assessed as necrotic cells at IC50 after 48 hrs by propidium iodide based epifluorescence microscopic analysis (reference value: 3 %); format: functional
U2OS [13] = test: Induction of apoptosis in human U2OS cells at IC50 after 24 hrs by Alexa fluor-Annexin V/DAPI staining-based epifluorescence microscopic analysis; format: functional
[14] = Induction of apoptosis in HEK293 cells at IC50 after 24 hrs by Alexa fluor-Annexin V/DAPI staining-based epifluorescence microscopic analysis; format: cell-based; details: human, hek293, 24 h
U2OS [15] = test: Induction of apoptosis in human U2OS cells assessed as increase in intracellular mitochondrial Ca2+ levels at IC50 by ratiometric pericam-mt based fluorescence microscopic analysis; format: functional, cell-based
[16] = Induction of apoptosis in HEK293 cells assessed as increase in intracellular mitochondrial Ca2+ levels at IC50 by ratiometric pericam-mt based fluorescence microscopic analysis; format: cell-based; details: human
U2OS [17] = test: as §1; format: functional

Oc1ccccc1C(c1ccc(Cl)cc1)N1CCOCC1 (stereo unspecified)
Activity [1]: 20%

C(=C\C(c1ccccn1)N1CCOCC1)/c1ccccc1 (stereo unspecified)
Activity [1]: 20%

C=Cc1ccc(C(c2ccccc2O)N2CCOCC2)cc1 (stereo unspecified)
Activity [1]: 20%

Cc1ccc(C(c2cc([N+](=O)[O-])ccc2O)N2CCc3ccccc32)cc1 (stereo unspecified)
IC50 [2]: 74 µM | Activity (U2OS [3]): Dose-dependent effect | Activity [1]: >90% | inhibition (INH) (U2OS [4]): 7% | inhibition (U2OS [5]): Active | inhibition (INH) (U2OS [6]): 32% | inhibition (U2OS [7]): Active | Activity (U2OS [8]): 17% | inhibition (U2OS [9]): Active | Activity (U2OS [10]): 23% | Activity (U2OS [11]): 12% | Activity (U2OS [12]): 15% | Activity (U2OS [13]): 43% | Activity [14]: 30% | Activity (U2OS [15]): Active | Activity [16]: Toxic

Oc1ccccc1C(c1ccccc1)N1CCc2ccccc21 (stereo unspecified)
Activity (U2OS [3]): Active | Activity [1]: >90%

Oc1ccccc1C(/C=C/c1ccccc1)N1CCOCC1 (stereo unspecified)
Activity [1]: 20%

Cc1ccc(C(c2ccccc2O)N2CCc3ccccc32)cc1 (stereo unspecified)
Activity [1]: 20%

Oc1ccccc1C(c1ccccc1)N1CCOCC1 (stereo unspecified)
Activity [1]: 20%

COc1ccc(C(c2ccccc2O)N2CCOCC2)cc1 (stereo unspecified)
Activity [1]: 20%

SODIUM ORTHOVANAD
Activity (U2OS [17]): 30%
